According to PubChem BioAssay (NCI):
Values joined by “and” are separate entries in the source; they are usually repeats but may differ in a detail not shown here. Equal values may be shown once.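 Test compounds were applied to cells in 96-well plates for 48 hours at 5 doses. GI50: concentration for 50% inhibition of growth. At the TGI there is no net growth.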

How the values were obtained:
Experiment in all cases: inhibition of tumour cell growth, NCI panel, 48 h
786-0 renal = tested on: 786-0 renal
CCRF-CEM leukemia = tested on: CCRF-CEM leukemia
EKVX NSCLC = tested on: EKVX NSCLC
HCC-2998 colon = tested on: HCC-2998 colon
HCT-15 colon = tested on: HCT-15 colon
MDA-MB-231 breast = tested on: MDA-MB-231 breast
MOLT-4 leukemia = tested on: MOLT-4 leukemia
NCI-H23 lung = tested on: NCI-H23 lung
SK-MEL-5 melanoma = tested on: SK-MEL-5 melanoma
U251 CNS = tested on: U251 CNS

SMILES | TGI (786-0 renal) [µM] | TGI (CCRF-CEM leukemia) | TGI (EKVX NSCLC) | TGI (HCC-2998 colon) | TGI (HCT-15 colon) | TGI (MDA-MB-231 breast) [µM] | TGI (MOLT-4 leukemia) | TGI (NCI-H23 lung) | TGI (SK-MEL-5 melanoma) | TGI (U251 CNS) | GI50 (CCRF-CEM leukemia) [µM] | GI50 (EKVX NSCLC) [µM] | GI50 (HCC-2998 colon) [µM] | GI50 (HCT-15 colon) [µM] | GI50 (MOLT-4 leukemia) [µM] | GI50 (NCI-H23 lung) [µM] | GI50 (SK-MEL-5 melanoma) [µM] | GI50 (U251 CNS) [µM]
C=C=C(CC(CC(=C)Br)(C(=O)OC)C(=O)OC)S(=O)(=O)c1ccccc1 | 2.36 | > 100 µM | 10.8 µM | 9.18 µM | 3.44 µM | 4.93 | > 100 µM | 6.33 µM | 10.3 µM | 2.95 µM | – | – | – | – | – | – | – | –
CC1=C2C(=CO[C@H](C)[C@H]2C)C(=O)C(C(=O)O)=C1O | 62.7 | > 88.7 µM and 45.9 µM | 83.6 µM and 63.2 µM | 42.6 µM and 57.9 µM | 60.3 µM and 40.8 µM | 58.5 | 40 µM and > 93.6 µM | 71.4 µM and 58.4 µM | 35.7 µM and 45.4 µM | 43.4 µM and 41 µM | 27.7 | 28.9 | 23.7 | 19.6 | 34.1 | 24.1 | 20.4 | 18.8
COc1cc2cc(C(=O)N3CC(COS(C)(=O)=O)c4ccc(O)cc43)[nH]c2c(OC)c1OC (stereo not drawn) | 0.0106 | > 100 µM | 0.00645 µM | < 0.0001 µM | 0.000858 µM | 0.000328 | 0.0924 µM | 0.00286 µM | < 0.0001 µM | 0.137 µM | – | – | – | – | – | – | – | –
Nc1ccc(S(=O)(=O)Nc2nc3ccccc3nc2N2CCCCCC2)cc1 | > 100 | > 100 µM | > 100 µM | 33.4 µM | 95.5 µM | > 100 | 55.3 µM | 47.7 µM | 30.1 µM | 46.4 µM | – | – | – | – | – | – | – | –
CC(Oc1ccccc1Cl)C(=O)NN1C(=O)CSC1c1ccccc1 (stereo not drawn) | > 100 | > 100 µM | > 100 µM | > 100 µM | > 100 µM | > 100 | > 100 µM | > 100 µM | > 100 µM | > 100 µM | – | – | – | – | – | – | – | –
CC(C)C(C/C=C1\CC(CO)(COC(=O)C2CCCCC2)OC1=O)C(C)C (stereo not drawn) | 28.9 | 43 µM | 41.2 µM | 65.1 µM | 38.8 µM | 36.1 | 39.8 µM | 40.2 µM | > 100 µM | 44.1 µM | – | – | – | – | – | – | – | –
c1ccc2c(c1)SCCCSCCSCCCS2 | > 100 | > 100 µM | > 100 µM | > 100 µM | > 100 µM | > 100 | > 100 µM | > 100 µM | > 100 µM | > 100 µM | – | – | – | – | – | – | – | –
Cc1cc(OC(=O)NCn2cc(-c3ccccc3)nn2)ccc1Cl | > 100 | > 100 µM | > 100 µM | 39.2 µM | > 100 µM | > 100 | > 100 µM | > 100 µM | > 100 µM | > 100 µM | – | – | – | – | – | – | – | –
O=C(Nn1c(-c2ccccc2)nc2ccccc2c1=O)c1ccccc1O | > 100 | > 100 µM | > 100 µM | > 100 µM | > 100 µM | > 100 | > 100 µM | > 100 µM | 84.3 µM | > 100 µM | – | – | – | – | – | – | – | –
O=c1[nH]n(Cc2ccccc2)c2ccc([N+](=O)[O-])cc12 | > 100 | > 100 µM | > 100 µM | > 100 µM | > 100 µM | 78.6 | > 100 µM | > 100 µM | > 100 µM | > 100 µM | – | – | – | – | – | – | – | –
COc1ccc(C(=O)CC(c2ccccc2)[C@H]2C(c3ccc(OC)cc3)=Nc3c(nc(SC)n(C)c3=O)NC2c2ccccc2)cc1 (stereo partly drawn) | > 100 | > 100 µM | > 100 µM | > 100 µM | > 100 µM | > 100 | > 100 µM | > 100 µM | > 100 µM | > 100 µM | – | – | – | – | – | – | – | –
NN=C(CC(O)(C(F)(F)Cl)C(F)(F)Cl)CC(O)(C(F)(F)Cl)C(F)(F)Cl | > 10 | > 10 µM | > 10 µM | > 10 µM | > 10 µM | > 10 | > 10 µM | > 10 µM | > 10 µM | > 10 µM | – | – | – | – | – | – | – | –
O=C1NC(=O)C(C(CC(=O)c2ccc(Cl)cc2)c2ccc(Cl)cc2)C(=O)N1 (stereo not drawn) | > 100 | > 100 µM | > 100 µM | > 100 µM | > 100 µM | > 100 | > 100 µM | > 100 µM | > 100 µM | > 100 µM | – | – | – | – | – | – | – | –
CN(C)Cc1cc(C(=O)/C=C/c2ccccc2)cc(CN(C)C)c1O | > 100 | > 100 µM | > 100 µM | 64.8 µM | > 100 µM | 58.1 | 63.7 µM | > 100 µM | 38.4 µM | > 100 µM | – | – | – | – | – | – | – | –
NNC(=O)C1(NC(=O)c2ccccc2)C(c2ccccc2)C(c2ccccc2)=NN1c1ccccc1 (stereo not drawn) | > 100 | 98.4 µM | > 100 µM | > 100 µM | > 100 µM | > 100 | 40.7 µM | > 100 µM | > 100 µM | > 100 µM | – | – | – | – | – | – | – | –
CN1CC2=C(NC(=S)NC2c2ccccc2)/C(=C/c2ccccc2)C1 (stereo not drawn) | > 100 | > 100 µM | > 100 µM | > 100 µM | > 100 µM | > 10 | 44.7 µM | > 100 µM | 74.1 µM | > 100 µM | – | – | – | – | – | – | – | –
CCc1cc2c(c3c1CCCC3=O)CC1(Cc3ccc(C(=O)OC)cc3C1)C2 (stereo not drawn) | > 100 | 91.4 µM | > 100 µM | > 100 µM | > 100 µM | > 100 | > 100 µM | > 100 µM | 30.1 µM | > 100 µM | – | – | – | – | – | – | – | –
CN1C(=O)C(O)C[C@@H]1c1ccccc1 (stereo partly drawn) | > 100 | > 100 µM | > 100 µM | > 100 µM | > 100 µM | > 100 | > 100 µM | > 100 µM | > 100 µM | > 100 µM | – | – | – | – | – | – | – | –
O=C(Nc1ccccc1C(=O)NCc1ccccc1)/C(=C/c1ccccc1)NC(=O)c1ccccc1 | > 100 | > 100 µM | > 100 µM | > 100 µM | > 100 µM | > 100 | > 100 µM | > 100 µM | > 100 µM | > 100 µM | – | – | – | – | – | – | – | –
CC(C)/C(Cl)=N\OC(NC(=O)P(=O)(c1ccccc1)c1ccccc1)(C(F)(F)F)C(F)(F)F | 22.8 | 22.5 µM | 63.2 µM | 33.4 µM | 37.8 µM | 34.4 | 39.6 µM | 23.8 µM | 26.7 µM | 12 µM | – | – | – | – | – | – | – | –
CCCCCCCCCCCCCCCCCCNc1nc(=O)n(C2CC(O)C(COP(=O)(O)O)O2)cc1F (stereo not drawn) | > 100 | 81.2 µM | > 100 µM | > 100 µM | > 100 µM | > 100 | > 96.1 µM | > 100 µM | > 100 µM | > 100 µM | – | – | – | – | – | – | – | –
CCOP(=O)(OCC)/C(=C/c1cccs1)CC(C)=O | > 100 | > 100 µM | > 100 µM | > 100 µM | > 100 µM | > 100 | > 100 µM | > 100 µM | > 100 µM | > 100 µM | – | – | – | – | – | – | – | –
O=C(c1cccs1)N1CCN(C(=O)c2cccs2)C1=S | 12.4 | 6.87 µM | 27.8 µM | 22 µM | 17.7 µM | 18.1 | 8.18 µM | 32.1 µM | 18.2 µM | 18.2 µM | – | – | – | – | – | – | – | –
Cc1c(C(=O)OCc2ccccc2)[n+](=O)c2cc(Cl)c(Cl)cc2n1[O-] | 30.5 | 39.4 µM | 28.6 µM | 28.5 µM | 34.1 µM | 38.2 | 21.5 µM | 32.5 µM | 28.2 µM | > 100 µM | – | – | – | – | – | – | – | –
COc1ccc(Nc2ccc3ccccc3c2-c2c(O)ccc3ccccc23)cc1 | 32.2 | 46.8 µM | 31.8 µM | 29.1 µM | 38.5 µM | 45.7 | 34.3 µM | 32.4 µM | 32.6 µM | 56 µM | – | – | – | – | – | – | – | –
CCOC(=O)c1cc2c([N+](=O)[O-])c(N)ccc2s1 | > 100 | > 100 µM | > 100 µM | > 100 µM | > 100 µM | > 100 | > 100 µM | > 100 µM | > 100 µM | > 100 µM | – | – | – | – | – | – | – | –
COC(=O)C1C(=O)N(C)C(=O)N2CCCC12 (stereo not drawn) | > 100 | > 100 µM | > 100 µM | > 100 µM | > 100 µM | > 100 | > 100 µM | > 100 µM | > 100 µM | > 100 µM | – | – | – | – | – | – | – | –
C=CCOn1c(C=C)nc2ccc(C)cc21 | 32.9 | 7.21 µM | 37.8 µM | 33 µM | 68.2 µM | 48.1 | 68.8 µM | 46 µM | 31.4 µM | 26 µM | – | – | – | – | – | – | – | –
